Two molecules from patent US20080027104A1, “Novel Crystalline Forms 2” (AstraZeneca AB, priority 2006, published 2008) can be followed below.

Holding throughout (type): physicochemical
Data set [1] is described as follows: Thermogravimetric analysis of crystalline form. To be noted: range from 25° C. up to 205° C. The protocol:
(§1) The crystalline forms may be further characterised by the presence of one or more of the additional properties listed below: • (i) for Form I • (I) when characterised by thermogravimetric analysis, a weight loss of approx. 0.8% occurs in the range from 25° C. up to 205° C., and/or • (II) when characterised by differential scanning calorimetry, at a heating rate of 10° C. per minute in a closed cup with a pinhole under flowing nitrogen, a melting temperature (Tm) having an onset at about 194° C. and/or an associated endotherm of melting of about 96 J/g; and/or • (III) when stored at 80% RH (ambient) less than 0.2% moisture is adsorbed. • (i) for Form II • (I) when characterised by thermogravimetric analysis, a weight loss of approx. 0.2% occurs in the range from 25° C. up to 205° C., and/or • (II) when characterised by differential scanning calorimetry, at a heating rate of 10° C. per minute in a closed cup with a pinhole under flowing nitrogen, a melting temperature (Tm) having an onset at about 193° C. and/or an associated endotherm of melting of about 105 J/g.

Data set [2] can be described thus: Thermodynamic stability of crystal form. The following applies: crystallised from THF/ethanol.
Data set [3] can be described thus: Moisture adsorption on storage at 80% RH. To be noted: stored at 80% RH (ambient). The protocol: as §1

For the molecule `CCOC(=O)c1cc(C#N)c(N2CCC(C(=O)NS(=O)(=O)Cc3ccccc3)CC2)nc1C` [Form II, 6-(4-{[(benzylsulfonyl)amino]carbonyl}piperidin-1-yl)-5-cyano-2-methylnicotinic acid ethyl ester], the “weight loss by thermogravimetric analysis” value in data set [1] is given as “approx. 0.2%”. In data set [2], the “thermodynamic stability of crystal form” value is reported as “thermodynamically stable form”.

In the case of `CCOC(=O)c1cc(C#N)c(N2CCC(C(=O)NS(=O)(=O)Cc3ccccc3)CC2)nc1C` [Form I, 6-(4-{[(benzylsulfonyl)amino]carbonyl}piperidin-1-yl)-5-cyano-2-methylnicotinic acid ethyl ester], the moisture adsorbed result in data set [3] was “less than 0.2%”. Moreover, in data set [1], the “weight loss by thermogravimetric analysis” value is “approx. 0.8%”.
